Measurements taken from patent US8183351B2, “Avermectin derivatives” (Bayer Cropscience AG, priority 2006, dated 2012).

Assays:
[1] = system: larvae of the mustard beetle (Phaedon cochleariae); test: Phaedon test (PHAECO spray treatment); type: in vivo; conditions: Example G; 4 ppm active compound; sprayed Chinese cabbage discs
Method: Phaedon Test (PHAECO Spray Treatment)
• Solvents: 78 parts by weight of acetone • 1.5 parts by weight of dimethylformamide • Emulsifier: 0.5 part by weight of alkylaryl polyglyycol ether
After the desired period of time, the effect in % is determined. 100% means that all beetle larvae have been killed; 0% means that none of the beetle larvae have been killed.

[2] = system: caterpillars of the army worm (Spodoptera frugiperda); test: Spodoptera frugiperda test (SPODFR spray treatment); type: in vivo; conditions: Example I; 4 ppm active compound; sprayed maize leaf discs
Method: Spodoptera frugiperda Test (SPODFR Spray Treatment)
• Solvents: 78.0 parts by weight of acetone • 1.5 parts by weight of dimethylformamide • Emulsifier: 0.5 part by weight of alkylaryl polyglyycol ether
After the desired period of time, the effect in % is determined. 100% means that all caterpillars have been killed; 0% means that none of the caterpillars have been killed.

SMILES	Kill rate in % after 7 days [1] [%]	Kill rate in % after 5 days [2] [%]
CCCC(=O)OC1C(C)OC(O[C@@H]2/C(C)=C/C[C@@H]3C[C@@H](CC4(C=C[C@H](C)[C@@H]([C@@H](C)CC)O4)O3)OC(=O)C3C=C(C)[C@@H](O)[C@H]4OC/C(=C\C=C\[C@@H]2C)[C@@]34O)CC1OC (stereo partly shown) [Example 28]	100	100
CC[C@H](C)[C@H]1OC2(C=C[C@@H]1C)C[C@@H]1C[C@@H](C/C=C(\C)[C@@H](OC3CC(OC)C(OC(=O)CCN4CCCCC4)C(C)O3)[C@@H](C)/C=C/C=C3\CO[C@@H]4[C@H](O)C(C)=CC(C(=O)O1)[C@]34O)O2 (stereo partly shown) [Example 87]	100	100
CC[C@H](C)[C@H]1OC2(C=C[C@@H]1C)C[C@@H]1C[C@@H](C/C=C(\C)[C@@H](OC3CC(OC)C(OC(=O)Cc4cccn4C)C(C)O3)[C@@H](C)/C=C/C=C3\CO[C@@H]4[C@H](O)C(C)=CC(C(=O)O1)[C@]34O)O2 (stereo partly shown) [Example 71]	100	100
CCCCC(=O)OC1C(C)OC(O[C@@H]2/C(C)=C/C[C@@H]3C[C@@H](CC4(C=C[C@H](C)[C@@H]([C@@H](C)CC)O4)O3)OC(=O)C3C=C(C)[C@@H](O)[C@H]4OC/C(=C\C=C\[C@@H]2C)[C@@]34O)CC1OC (stereo partly shown) [Example 29]	100	100
CC[C@H](C)[C@H]1OC2(C=C[C@@H]1C)C[C@@H]1C[C@@H](C/C=C(\C)[C@@H](OC3CC(OC)C(OC(=O)Cc4cccnc4)C(C)O3)[C@@H](C)/C=C/C=C3\CO[C@@H]4[C@H](O)C(C)=CC(C(=O)O1)[C@]34O)O2 (stereo partly shown) [Example 33]	100	100
CN(C)C1(C)CC1 [Example 74]	100	100
CCC(C)C1OC2(C=CC1C)CC1CC(CC=C(C)C(OC3CC(OC)C(OC(=O)C(C)N(C)C)C(C)O3)C(C)C=CC=C3COC4C(O)C(C)=CC(C(=O)O1)C34O)O2 (stereo not shown) [Example 81]	100	100
CC[C@H](C)[C@H]1OC2(C=C[C@@H]1C)C[C@@H]1C[C@@H](C/C=C(\C)[C@@H](OC3CC(OC)C(OC(=O)CN4C(=O)CCC4=O)C(C)O3)[C@@H](C)/C=C/C=C3\CO[C@@H]4[C@H](O)C(C)=CC(C(=O)O1)[C@]34O)O2 (stereo partly shown) [Example 45]	100	100
CC[C@H](C)[C@H]1OC2(C=C[C@@H]1C)C[C@@H]1C[C@@H](C/C=C(\C)[C@@H](OC3CC(OC)C(OC(=O)C(C)N4CCNCC4)C(C)O3)[C@@H](C)/C=C/C=C3\CO[C@@H]4[C@H](O)C(C)=CC(C(=O)O1)[C@]34O)O2 (stereo partly shown) [Example 105]	100	100
CC[C@H](C)[C@H]1OC2(C=C[C@@H]1C)C[C@@H]1C[C@@H](C/C=C(\C)[C@@H](OC3CC(OC)C(OC(=O)Cn4cnnn4)C(C)O3)[C@@H](C)/C=C/C=C3\CO[C@@H]4[C@H](O)C(C)=CC(C(=O)O1)[C@]34O)O2 (stereo partly shown) [Example 42]	83	100
CC[C@H](C)[C@H]1OC2(C=C[C@@H]1C)C[C@@H]1C[C@@H](C/C=C(\C)[C@@H](OC3CC(OC)C(OC(=O)CN4CCN(C)CC4)C(C)O3)[C@@H](C)/C=C/C=C3\CO[C@@H]4[C@H](O)C(C)=CC(C(=O)O1)[C@]34O)O2 (stereo partly shown) [Example 76]	100	100
CC[C@H](C)[C@H]1OC2(C=C[C@@H]1C)C[C@@H]1C[C@@H](C/C=C(\C)[C@@H](OC3CC(OC)C(OC(=O)C(C)CN(C)C)C(C)O3)[C@@H](C)/C=C/C=C3\CO[C@@H]4[C@H](O)C(C)=CC(C(=O)O1)[C@]34O)O2 (stereo partly shown) [Example 82]	100	100
CC[C@H](C)[C@H]1OC2(C=C[C@@H]1C)C[C@@H]1C[C@@H](C/C=C(\C)[C@@H](OC3CC(OC)C(OC(=O)CC4C(=O)NCCN4C)C(C)O3)[C@@H](C)/C=C/C=C3\CO[C@@H]4[C@H](O)C(C)=CC(C(=O)O1)[C@]34O)O2 (stereo partly shown) [Example 85]	83	100
CC[C@H](C)[C@H]1OC2(C=C[C@@H]1C)C[C@@H]1C[C@@H](C/C=C(\C)[C@@H](OC3CC(OC)C(OC(=O)C4(F)CC4)C(C)O3)[C@@H](C)/C=C/C=C3\CO[C@@H]4[C@H](O)C(C)=CC(C(=O)O1)[C@]34O)O2 (stereo partly shown) [Example 36]	100	83
CC[C@H](C)[C@H]1OC2(C=C[C@@H]1C)C[C@@H]1C[C@@H](C/C=C(\C)[C@@H](OC3CC(OC)C(OC(=O)Cn4ccc(C(F)(F)F)n4)C(C)O3)[C@@H](C)/C=C/C=C3\CO[C@@H]4[C@H](O)C(C)=CC(C(=O)O1)[C@]34O)O2 (stereo partly shown) [Example 59]	100	100
CC[C@H](C)[C@H]1OC2(C=C[C@@H]1C)C[C@@H]1C[C@@H](C/C=C(\C)[C@@H](OC3CC(OC)C(OC(=O)CN4CCN(Cc5ccccc5)CC4)C(C)O3)[C@@H](C)/C=C/C=C3\CO[C@@H]4[C@H](O)C(C)=CC(C(=O)O1)[C@]34O)O2 (stereo partly shown) [Example 78]	100	100
CC[C@H](C)[C@H]1OC2(C=C[C@@H]1C)C[C@@H]1C[C@@H](C/C=C(\C)[C@@H](OC3CC(OC)C(OC(=O)CN4CCSCC4)C(C)O3)[C@@H](C)/C=C/C=C3\CO[C@@H]4[C@H](O)C(C)=CC(C(=O)O1)[C@]34O)O2 (stereo partly shown) [Example 80]	100	100
CC[C@H](C)[C@H]1OC2(C=C[C@@H]1C)C[C@@H]1C[C@@H](C/C=C(\C)[C@@H](OC3CC(OC)C(OC(=O)CCN4CCOCC4)C(C)O3)[C@@H](C)/C=C/C=C3\CO[C@@H]4[C@H](O)C(C)=CC(C(=O)O1)[C@]34O)O2 (stereo partly shown) [Example 83]	100	100
CC[C@H](C)[C@H]1OC2(C=C[C@@H]1C)C[C@@H]1C[C@@H](C/C=C(\C)[C@@H](OC3CC(OC)C(OC(=O)C(C)c4ccc(Cl)nc4)C(C)O3)[C@@H](C)/C=C/C=C3\CO[C@@H]4[C@H](O)C(C)=CC(C(=O)O1)[C@]34O)O2 (stereo partly shown) [Example 69]	100	100
CC[C@H](C)[C@H]1OC2(C=C[C@@H]1C)C[C@@H]1C[C@@H](C/C=C(\C)[C@@H](OC3CC(OC)C(OC(=O)C(C)C#N)C(C)O3)[C@@H](C)/C=C/C=C3\CO[C@@H]4[C@H](O)C(C)=CC(C(=O)O1)[C@]34O)O2 (stereo partly shown) [Example 72]	100	100
CC[C@H](C)[C@H]1OC2(C=C[C@@H]1C)C[C@@H]1C[C@@H](C/C=C(\C)[C@@H](OC3CC(OC)C(OC(=O)C(C)N4CCOCC4)C(C)O3)[C@@H](C)/C=C/C=C3\CO[C@@H]4[C@H](O)C(C)=CC(C(=O)O1)[C@]34O)O2.O=C(O)c1ccccc1 (stereo partly shown) [Example 106, 4′-O-(2-Morpholin-4-ylpropanoyl)-avermectin B1 monosaccharide benzoate]	100	100
CC[C@H](C)[C@H]1OC2(C=C[C@@H]1C)C[C@@H]1C[C@@H](C/C=C(\C)[C@@H](OC3CC(OC)C(OC(=O)C4CCCN(C)C4)C(C)O3)[C@@H](C)/C=C/C=C3\CO[C@@H]4[C@H](O)C(C)=CC(C(=O)O1)[C@]34O)O2 (stereo partly shown) [Example 84]	100	100
CC[C@H](C)[C@H]1OC2(CC[C@@H]1C)C[C@@H]1C[C@@H](C/C=C(\C)[C@@H](OC3CC(OC)C(OC(=O)CN)C(C)O3)[C@@H](C)/C=C/C=C3\CO[C@@H]4[C@H](O)C(C)=CC(C(=O)O1)[C@]34O)O2 (stereo partly shown) [Example 103]	100	100
CC[C@H](C)[C@H]1OC2(C=C[C@@H]1C)C[C@@H]1C[C@@H](C/C=C(\C)[C@@H](OC3CC(OC)C(OC(=O)CN4CCNCC4)C(C)O3)[C@@H](C)/C=C/C=C3\CO[C@@H]4[C@H](O)C(C)=CC(C(=O)O1)[C@]34O)O2.O=C(O)c1ccccc1.O=C(O)c1ccccc1 (stereo partly shown) [Example 107, 4′-O-(piperazin-1-ylacetyl)-avermectin B1 monosaccharide dibenzoate]	100	100
CC[C@H](C)[C@H]1OC2(C=C[C@@H]1C)C[C@@H]1C[C@@H](C/C=C(\C)[C@@H](OC3CC(OC)C(OC(=O)Cn4cccn4)C(C)O3)[C@@H](C)/C=C/C=C3\CO[C@@H]4[C@H](O)C(C)=CC(C(=O)O1)[C@]34O)O2 (stereo partly shown) [Example 35]	100	100
CC[C@H](C)[C@H]1OC2(C=C[C@@H]1C)C[C@@H]1C[C@@H](C/C=C(\C)[C@@H](OC3CC(OC)C(OC(=O)CN4CCOCC4=O)C(C)O3)[C@@H](C)/C=C/C=C3\CO[C@@H]4[C@H](O)C(C)=CC(C(=O)O1)[C@]34O)O2 (stereo partly shown) [Example 75]	100	100
CC[C@H](C)[C@H]1OC2(C=C[C@@H]1C)C[C@@H]1C[C@@H](C/C=C(\C)[C@@H](OC3CC(OC)C(OC(=O)Cn4cncn4)C(C)O3)[C@@H](C)/C=C/C=C3\CO[C@@H]4[C@H](O)C(C)=CC(C(=O)O1)[C@]34O)O2 (stereo partly shown) [Example 32]	100	100
CC[C@H](C)[C@H]1OC2(C=C[C@@H]1C)C[C@@H]1C[C@@H](C/C=C(\C)[C@@H](OC3CC(OC)C(OC(=O)CCN4CCN(C)CC4)C(C)O3)[C@@H](C)/C=C/C=C3\CO[C@@H]4[C@H](O)C(C)=CC(C(=O)O1)[C@]34O)O2 (stereo partly shown) [Example 88]	100	100
CCC(C)C1OC2(C=CC1C)CC1CC(CC=C(C)C(OC3CC(OC)C(OC(=O)C(C)NC(=O)OC(C)(C)C)C(C)O3)C(C)C=CC=C3COC4C(O)C(C)=CC(C(=O)O1)C34O)O2 (stereo not shown) [Example 40]	100	100
